Test results taken from US20260184663A1, “INDENE COMPOUNDS, PHARMACEUTICAL COMPOSITIONS THEREOF, AND THEIR THERAPEUTIC APPLICATIONS” (NucMito Pharmaceuticals co. Ltd., priority 2022, published 2026).

Tests used:
Assay type in all cases: cell-based
[1] = test system: MDA-MB-231 (breast cancer); assay: Antiproliferative activity (CCK-8 cell viability), MDA-MB-231; conditions: Homo sapiens, 72 h, read-out: Antiproliferative activity in cancerous cells, MDA-MB-231 (inhibition of cell growth); for inhibition at 3.3 µM: Compound concentration: 3.3 μM; for inhibition at 10 µM: Compound concentration: 10 μM
Method in brief: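 MDA-MB-231 breast cancer cells, grown in DMEM with 10% FBS, were plated in 96-well plates at 2,000-5,000 cells/well. Once attached, they were exposed to compound and incubated at 37° C. for 72 h. Viability was then measured with CCK-8 (10 μL per well, 4 h at 37° C.) by absorbance at 450 nm, relative to DMSO vehicle wells.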

[2] = test system: HepG2 (liver cancer); assay: Antiproliferative activity (CCK-8 cell viability), HepG2; conditions: Homo sapiens, 72 h, read-out: Antiproliferative activity in cancerous cells, HepG2 (inhibition of cell growth); for inhibition at 3.3 µM: Compound concentration: 3.3 μM; for inhibition at 10 µM: Compound concentration: 10 μM
Method in brief: (§1)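 Cells grown in DMEM (HepG2, SW480), MEM (HeLa) or F-12K (A549), each with 10% FBS, then exposed to compound at 3.3, 10 or 30 μM for 72 h at 37 °C. CCK-8 absorbance at 450 nm; viability expressed as percent of DMSO-treated cells, graded as growth inhibition bands.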

[3] = test system: SW480 (colon cancer); assay: Antiproliferative activity (CCK-8 cell viability), SW480; conditions: Homo sapiens, 72 h, read-out: Antiproliferative activity in cancerous cells, SW480 (inhibition of cell growth); for inhibition at 3.3 µM: Compound concentration: 3.3 μM; for inhibition at 10 µM: Compound concentration: 10 μM
Method in brief: as §1

[4] = test system: B16F10 (malignant melanoma); assay: Antiproliferative activity (CCK-8 cell viability), B16F10; conditions: Mus musculus, 72 h, read-out: Antiproliferative activity in cancerous cells, B16F10 (inhibition of cell growth); for inhibition at 3.3 µM: B16-F10, Compound concentration: 3.3 μM; for inhibition at 10 µM: B16-F10, Compound concentration: 10 μM
Method in brief: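 B16F10 melanoma cells grown in DMEM with 10% FBS were plated in 96-well plates at 2,000-5,000 cells/well. After attachment they were exposed to compound in medium for 72 h at 37° C. CCK-8 solution (10 μL) was then added, and after 4 h at 37° C absorbance was read at 450 nm.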

[5] = test system: A431 (epidermoid carcinoma); assay: Antiproliferative activity (CCK-8 cell viability), A431; conditions: Homo sapiens, 72 h, read-out: Antiproliferative activity in cancerous cells, A431 (inhibition of cell growth); for inhibition at 3.3 µM: A-431, Compound concentration: 3.3 μM; for inhibition at 10 µM: A-431, Compound concentration: 10 μM
Method in brief: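 A431 epidermoid carcinoma cells grown in DMEM with 10% FBS were plated at 2,000-5,000 cells/well in 96-well plates. After attachment they were exposed to compound at 3.3 μM, 10 μM, or 30 μM for 72 h at 37° C. Viability was then assessed by CCK-8 against DMSO vehicle-treated wells.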

[6] = test system: A549 (lung adenocarcinoma); assay: Antiproliferative activity (CCK-8 cell viability), A549; conditions: Homo sapiens, 72 h, read-out: Antiproliferative activity in cancerous cells, A549 (inhibition of cell growth); for inhibition at 3.3 µM: Compound concentration: 3.3 μM; for inhibition at 10 µM: Compound concentration: 10 μM
Method in brief: as §1

[7] = test system: HeLa (cervical cancer); assay: Antiproliferative activity (CCK-8 cell viability), HeLa; conditions: Homo sapiens, 72 h, read-out: Antiproliferative activity in cancerous cells, HELA (inhibition of cell growth); for inhibition at 3.3 µM: Compound concentration: 3.3 μM; for inhibition at 10 µM: Compound concentration: 10 μM
Method in brief: as §1

Structure (SMILES) | inhibition at 3.3 µM [1] | inhibition at 10 µM [1] | inhibition at 3.3 µM [2] | inhibition at 10 µM [2] | inhibition at 3.3 µM [3] | inhibition at 10 µM [3] | inhibition at 3.3 µM [4] | inhibition at 10 µM [4] | inhibition at 3.3 µM [5] | inhibition at 10 µM [5] | inhibition at 3.3 µM [6] | inhibition at 10 µM [6] | inhibition at 3.3 µM [7] | inhibition at 10 µM [7]
CC1=C(CC(=O)O)c2cc(F)ccc2/C1=C\c1cccc(Oc2ccc(C)cc2)c1 [C96, (Z)-2-(5-Fluoro-2-methyl-1-(3-(p-tolyloxy)benzylidene)-1H-inden-3-yl)acetic acid] | < 30% | < 30% | 30 to 50% | ≥ 50% | < 30% | < 30% | 30 to 50% | 30 to 50% | ≥ 50% | ≥ 50% | < 30% | ≥ 50% | 30 to 50% | ≥ 50%
CC1=C(CC(=O)O)c2cc(F)ccc2/C1=C\c1cccc(Oc2ccc(Br)cc2)c1 [C97, (Z)-2-(1-(3-(4-Bromophenoxy)benzylidene)-5-fluoro-2-methyl-1H-inden-3-yl)acetic acid] | < 30% | < 30% | < 30% | ≥ 50% | < 30% | < 30% | 30 to 50% | ≥ 50% | < 30% | < 30% | < 30% | 30 to 50% | < 30% | ≥ 50%
CC1=C(CC(=O)O)c2cc(F)ccc2/C1=C\c1cccc(Oc2ccc(F)c(F)c2)c1 [C98, (Z)-2-(1-(3-(3,4-Difluorophenoxy)benzylidene)-5-fluoro-2-methyl-1H-inden-3-yl)acetic acid] | < 30% | 30 to 50% | < 30% | ≥ 50% | < 30% | < 30% | 30 to 50% | ≥ 50% | < 30% | 30 to 50% | < 30% | < 30% | < 30% | ≥ 50%
CC1=C(CC(=O)O)c2cc(F)ccc2/C1=C\c1cccc(Oc2ccc3ccccc3c2)c1 [C99, (Z)-2-(5-Fluoro-2-methyl-1-(3-(naphthalen-2-yloxy)benzylidene)-1H-inden-3-yl)acetic acid] | < 30% | 30 to 50% | < 30% | ≥ 50% | < 30% | < 30% | ≥ 50% | ≥ 50% | < 30% | < 30% | < 30% | < 30% | < 30% | ≥ 50%
CC1=C(CC(=O)O)c2cc(F)ccc2/C1=C\c1cccc(Oc2ccc(I)cc2)c1 [C100, (Z)-2-(5-Fluoro-1-(3-(4-iodophenoxy)benzylidene)-2-methyl-1H-inden-3-yl)acetic acid] | < 30% | < 30% | < 30% | ≥ 50% | < 30% | < 30% | < 30% | 30 to 50% | < 30% | < 30% | < 30% | 30 to 50% | < 30% | ≥ 50%
